# Reference: PubChem BioAssay (NCI)
#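 Values below derive from 48-hour exposures of cells grown in 96-well plates, with endpoints linearly interpolated between the two concentrations bracketing the appropriate inhibition level. The concentration for full growth arrest is given as TGI.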
# How the values were obtained:
# Assay in all cases: growth of human tumour cells (NCI), 48 h
# [1] = test system: HT29 colon
# [2] = test system: MALME-3M melanoma
# [3] = test system: OVCAR-4 ovarian
# [4] = test system: SF-539 CNS
# [5] = test system: DU-145 prostate
# [6] = test system: SNB-19 CNS
# [7] = test system: M14 melanoma
# [8] = test system: T-47D breast
# [9] = test system: SNB-75 CNS
# [10] = test system: LOX IMVI melanoma
# [11] = test system: SK-MEL-2 melanoma
# [12] = test system: 786-0 renal
# [13] = test system: MDA-MB-231 breast
# [14] = test system: MDA-N
# [15] = test system: SK-MEL-28 melanoma
# [16] = test system: UO-31 renal
# [17] = test system: SF-295 CNS
# [18] = test system: IGROV1 ovarian
# [19] = test system: OVCAR-8 ovarian
# [20] = test system: EKVX NSCLC
# [21] = test system: MOLT-4 leukemia
# [22] = test system: CAKI-1 renal
# [23] = test system: NCI/ADR-RES ovarian
# [24] = test system: ACHN renal
# [25] = test system: HCT-116 colon
# [26] = test system: SR leukemia
# [27] = test system: NCI-H23 lung
# [28] = test system: SW-620 colon
# [29] = test system: HOP-62 NSCLC
# [30] = test system: A549 NSCLC
# [31] = test system: UACC-62 melanoma
# [32] = test system: SK-MEL-5 melanoma
# [33] = test system: CCRF-CEM leukemia
# [34] = test system: OVCAR-5 ovarian
# [35] = test system: OVCAR-3 ovarian
# [36] = test system: HS 578T breast
# [37] = test system: SF-268 CNS
# [38] = test system: HOP-92 NSCLC
# [39] = test system: RXF 393 renal
# [40] = test system: K-562 leukemia
# [41] = test system: MCF7 breast
# [42] = test system: U251 CNS
# [43] = test system: KM12 colon
# [44] = test system: SN12C renal
# [45] = test system: SK-OV-3 ovarian
# [46] = test system: NCI-H522 lung
# [47] = test system: NCI-H460 lung
# [48] = test system: MDA-MB-435
# [49] = test system: RPMI-8226 leukemia
# [50] = test system: PC-3 prostate
# [51] = test system: NCI-H226 lung
# [52] = test system: HCT-15 colon
# [53] = test system: HL-60(TB) leukemia
# [54] = test system: TK-10 renal
# [55] = test system: COLO 205 colon
# [56] = test system: UACC-257 melanoma
# [57] = test system: HCC-2998 colon
# [58] = test system: A498 renal
smiles,measurement,setting,value
COc1ccc2nc3c([N+](=O)[O-])ccc(NCCCN(C)C)c3c(N)c2c1,TGI,[1],2.31 µM
same,TGI,[2],3.1 µM
same,TGI,[3],3.06 µM
same,TGI,[4],3.36 µM
same,TGI,[5],3.05 µM
same,TGI,[6],4.23 µM
same,TGI,[7],3.61 µM
same,TGI,[8],3.98 µM
same,TGI,[9],3.47 µM
same,TGI,[10],3.23 µM
same,TGI,[11],4.78 µM
same,TGI,[12],2.6 µM
same,TGI,[13],3.09 µM
same,TGI,[14],3.47 µM
same,TGI,[15],3.04 µM
same,TGI,[16],3.71 µM
same,TGI,[17],2.95 µM
same,TGI,[18],2.85 µM
same,TGI,[19],4.69 µM
same,TGI,[20],3.68 µM
same,TGI,[21],1.69 µM
same,TGI,[22],3.71 µM
same,TGI,[23],4.25 µM
same,TGI,[24],2.59 µM
same,TGI,[25],0.464 µM
same,TGI,[26],4.23 µM
same,TGI,[27],3.95 µM
same,TGI,[28],1.71 µM
same,TGI,[29],3.89 µM
same,TGI,[30],3.15 µM
same,TGI,[31],3.79 µM
same,TGI,[32],3.63 µM
same,TGI,[33],1.26 µM
same,TGI,[34],2.75 µM
same,TGI,[35],3 µM
same,TGI,[36],4.79 µM
same,TGI,[37],3.31 µM
same,TGI,[38],3.73 µM
same,TGI,[39],2.81 µM
same,TGI,[40],1.41 µM
same,TGI,[41],2.5 µM
same,TGI,[42],3.02 µM
same,TGI,[43],3.02 µM
same,TGI,[44],2.99 µM
same,TGI,[45],3.01 µM
same,TGI,[46],1.34 µM
same,TGI,[47],2.59 µM
same,TGI,[48],3.66 µM
same,TGI,[49],1.84 µM
same,TGI,[50],2.73 µM
same,TGI,[51],3.82 µM
same,TGI,[52],2.62 µM
same,TGI,[53],5.86 µM
same,TGI,[54],3.46 µM
same,TGI,[55],2.29 µM
N#CC(C#N)C1CN2CCC1CC2 (configuration not stated),TGI,[56],> 100 µM
same,TGI,[1],> 100 µM
same,TGI,[2],> 100 µM
same,TGI,[57],> 100 µM
same,TGI,[3],> 100 µM
same,TGI,[4],> 100 µM
same,TGI,[5],> 100 µM
same,TGI,[6],> 100 µM
same,TGI,[7],> 100 µM
same,TGI,[8],> 100 µM
same,TGI,[9],> 100 µM
same,TGI,[10],> 100 µM
same,TGI,[11],> 100 µM
same,TGI,[12],> 100 µM
same,TGI,[13],> 100 µM
same,TGI,[14],> 100 µM
same,TGI,[15],> 100 µM
same,TGI,[16],> 100 µM
same,TGI,[17],> 100 µM
same,TGI,[18],> 100 µM
same,TGI,[19],> 100 µM
same,TGI,[20],> 100 µM
same,TGI,[21],> 100 µM
same,TGI,[22],> 100 µM
same,TGI,[23],> 100 µM
same,TGI,[24],> 100 µM
same,TGI,[25],> 100 µM
same,TGI,[26],> 100 µM
same,TGI,[27],> 100 µM
same,TGI,[28],> 100 µM
same,TGI,[29],> 100 µM
same,TGI,[58],> 100 µM
same,TGI,[30],> 100 µM
same,TGI,[31],> 100 µM
same,TGI,[32],> 100 µM
same,TGI,[33],> 100 µM
same,TGI,[34],> 100 µM
same,TGI,[35],> 100 µM
same,TGI,[36],> 100 µM
same,TGI,[37],> 100 µM
same,TGI,[39],> 100 µM
same,TGI,[40],> 100 µM
same,TGI,[41],> 100 µM
same,TGI,[42],> 100 µM
same,TGI,[43],> 100 µM
same,TGI,[44],> 100 µM
same,TGI,[45],> 100 µM
same,TGI,[46],> 100 µM
same,TGI,[47],> 100 µM
same,TGI,[48],> 100 µM
same,TGI,[49],> 100 µM
same,TGI,[50],> 100 µM
same,TGI,[51],> 100 µM
same,TGI,[52],> 100 µM
same,TGI,[53],> 100 µM
same,TGI,[54],> 100 µM
same,TGI,[55],> 100 µM
